The experiment concerns the target T1, human recombinant HDAC6 (Homo sapiens, UniProt Q9UBN7).
T1 construct: purchased Calbiochem 382180
T1 sequence (Q9UBN7 1-1215): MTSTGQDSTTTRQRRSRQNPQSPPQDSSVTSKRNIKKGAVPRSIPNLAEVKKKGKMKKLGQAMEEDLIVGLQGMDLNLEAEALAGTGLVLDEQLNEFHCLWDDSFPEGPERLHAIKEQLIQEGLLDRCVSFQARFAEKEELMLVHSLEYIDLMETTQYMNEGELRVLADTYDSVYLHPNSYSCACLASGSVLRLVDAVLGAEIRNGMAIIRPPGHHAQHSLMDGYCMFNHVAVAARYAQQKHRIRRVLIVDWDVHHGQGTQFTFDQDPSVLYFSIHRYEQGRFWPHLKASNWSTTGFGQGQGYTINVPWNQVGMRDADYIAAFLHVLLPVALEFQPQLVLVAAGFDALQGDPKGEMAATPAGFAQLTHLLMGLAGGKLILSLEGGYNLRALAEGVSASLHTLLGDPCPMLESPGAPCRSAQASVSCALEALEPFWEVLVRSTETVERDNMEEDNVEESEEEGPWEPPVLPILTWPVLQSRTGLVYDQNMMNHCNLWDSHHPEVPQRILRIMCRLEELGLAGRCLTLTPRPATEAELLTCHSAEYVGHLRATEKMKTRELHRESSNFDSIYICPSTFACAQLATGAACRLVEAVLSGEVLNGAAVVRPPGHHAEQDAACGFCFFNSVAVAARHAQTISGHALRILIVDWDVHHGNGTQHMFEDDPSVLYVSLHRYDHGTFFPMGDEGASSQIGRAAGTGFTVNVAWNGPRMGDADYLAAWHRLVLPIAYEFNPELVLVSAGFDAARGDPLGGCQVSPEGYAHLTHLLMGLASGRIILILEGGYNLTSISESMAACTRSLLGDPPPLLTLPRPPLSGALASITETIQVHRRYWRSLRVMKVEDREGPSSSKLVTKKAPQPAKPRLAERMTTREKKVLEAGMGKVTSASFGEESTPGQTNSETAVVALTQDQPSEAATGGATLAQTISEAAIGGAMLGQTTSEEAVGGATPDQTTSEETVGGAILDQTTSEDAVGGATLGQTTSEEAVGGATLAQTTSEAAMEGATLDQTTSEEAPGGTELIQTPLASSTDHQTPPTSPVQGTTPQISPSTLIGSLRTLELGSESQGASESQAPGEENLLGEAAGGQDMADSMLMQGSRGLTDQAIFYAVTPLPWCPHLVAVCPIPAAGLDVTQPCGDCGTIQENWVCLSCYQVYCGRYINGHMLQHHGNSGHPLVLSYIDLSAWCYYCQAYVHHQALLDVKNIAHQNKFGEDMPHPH
The experiment is described as follows: HDAC6 enzyme activity inhibition assay (HDAC Fluorimetric Drug Discovery Kit). The settings on record: for HDAC6 selectivity (fold): HDAC1 vs HDAC6; for IC50: same protocol as the HDAC1 enzyme activity test. In kind it is biochemical. In outline:
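Both isoforms are run by an identical fluorimetric protocol: deacetylation of 10 μM Fluor de Lys-SIRT1 substrate by 0.3 μg recombinant enzyme over 60 min at 30° C, in the presence of 5-fold compound dilutions. Signal is developed for 30 min and read at Ex 360/Em 460 to derive IC50.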

Molecules are shown by their SMILES.

In general, IC50 refers to the concentration that inhibits the measured activity by half. In the case of `CS(=O)(=O)N(Cc1ccc(-c2nnc(C(F)F)o2)cc1F)c1ccc2c(c1)OCO2` [Compound 11227, N-(benzo[d][1,3]dioxol-5-yl)-N-(4-(5-(difluoromethyl)-1,3,4-oxadiazol-2-yl)-2-fluorobenzyl)methanesulfonamide], the “HDAC6 selectivity (fold)” value was found to be 4348 fold and the IC50 came to 23 nM.
Taken in the same sequence, the figures for `CCS(=O)(=O)N(Cc1ccc(-c2nnc(C(F)F)o2)cn1)c1ccc2cnn(C)c2c1` [Compound 11540, N-((5-(5-(difluoromethyl)-1,3,4-oxadiazol-2-yl)pyridin-2-yl)methyl)-N-(1-methyl-1H-indazol-6-yl)ethanesulfonamide] were 10000 fold and 10 nM.
For `CC(=O)N1CC(N2CCC(S(=O)(=O)N(Cc3ccc(-c4nnc(C(F)F)o4)cn3)c3cccc(C)c3)CC2)C1` [Compound 11838, 1-(1-acetylazetidin-3-yl)-N-((5-(5-(difluoromethyl)-1,3,4-oxadiazol-2-yl)pyridin-2-yl)methyl)-N-(m-tolyl)piperidine-4-sulfonamide], the “HDAC6 selectivity (fold)” value is on record as 2241 fold and the concentration for half-maximal inhibition (IC50) was determined as 44.6 nM.
Taken in the same sequence, the figures for `CS(=O)(=O)N(Cc1ccc(-c2nnc(C(F)F)o2)cn1)c1ccccc1` [Compound 11172, N-((5-(5-(difluoromethyl)-1,3,4-oxadiazol-2-yl)pyridin-2-yl)methyl)-N-phenylmethanesulfonamide] were 11111 fold and 9 nM.
For `O=C(CO)N1CC(N2CCC(S(=O)(=O)N(Cc3ccc(-c4nnc(C(F)F)o4)cc3)c3cccc(Cl)c3)CC2)C1` [Compound 11836, N-(3-chlorophenyl)-N-(4-(5-(difluoromethyl)-1,3,4-oxadiazol-2-yl)benzyl)-1-(1-(2-hydroxyacetyl)azetidin-3-yl)piperidine-4-sulfonamide] the same measures were 3147 fold and 31.8 nM.
For `CS(=O)(=O)N(Cc1ccc(-c2nnc(C(F)F)o2)cc1)c1cccnc1` [Compound 11628, N-(4-(5-(difluoromethyl)-1,3,4-oxadiazol-2-yl)benzyl)-N-(pyridin-3-yl)methanesulfonamide], the “HDAC6 selectivity (fold)” value came out at 2083 fold and the half-maximal inhibitory concentration (IC50) was determined as 48 nM.
For `Cc1ccc(N(Cc2ccc(-c3nnc(C(F)(F)F)o3)cc2F)S(C)(=O)=O)cc1` [Compound 11282, N-(2-fluoro-4-(5-(trifluoromethyl)-1,3,4-oxadiazol-2-yl)benzyl)-N-(p-tolyl)methanesulfonamide] the same measures were 781 fold and 128 nM.
Taken in the same sequence, the figures for `NC(=O)[C@@H]1C[C@@H](O)CN1CCS(=O)(=O)N(Cc1ccc(-c2nnc(C(F)F)o2)cn1)c1ccccc1` [Compound 11849, (2S,4R)-1-(2-(N-((5-(5-(difluoromethyl)-1,3,4-oxadiazol-2-yl)pyridin-2-yl)methyl)-N-phenylsulfamoyl)ethyl)-4-hydroxypyrrolidine-2-carboxamide] were 1605 fold and 62.3 nM.
Taken in the same sequence, the figures for `CS(=O)(=O)N(Cc1ccc(-c2nnc(C(F)F)o2)cc1F)c1ccc(F)cc1` [Compound 11276, N-(4-(5-(difluoromethyl)-1,3,4-oxadiazol-2-yl)-2-fluorobenzyl)-N-(4-fluorophenyl)methanesulfonamide] were 4000 fold and 25 nM.
For `O=S(=O)(c1cccnc1)N(Cc1ccc(-c2nnc(C(F)F)o2)cc1)c1cccc(F)c1` [Compound 11156, N-(4-(5-(difluoromethyl)-1,3,4-oxadiazol-2-yl)benzyl)-N-(3-fluorophenyl)pyridine-3-sulfonamide], the “HDAC6 selectivity (fold)” value is reported as 3448 fold and the IC50 turned out to be 29 nM.
As for `O=S(=O)(CCN1CCCC(O)C1)N(Cc1ccc(-c2nnc(C(F)F)o2)cc1)c1ccccc1` (centres unmarked) [Compound 11700, N-(4-(5-(difluoromethyl)-1,3,4-oxadiazol-2-yl)benzyl)-2-(3-hydroxypiperidin-1-yl)-N-phenylethanesulfonamide], the “HDAC6 selectivity (fold)” value is on record as 782 fold and the IC50 was found to be 128 nM.
For `CS(=O)(=O)N(Cc1ccc(-c2nnc(C(F)F)o2)cc1)c1ccccc1` [Compound 11168, N-(4-(5-(difluoromethyl)-1,3,4-oxadiazol-2-yl)benzyl)-N-phenylmethanesulfonamide] the same measures were 4348 fold and 23 nM.
Take `CC1CCN(CCS(=O)(=O)N(Cc2ccc(-c3nnc(C(F)F)o3)cc2)c2ccccc2)CC1` [Compound 11675, N-(4-(5-(difluoromethyl)-1,3,4-oxadiazol-2-yl)benzyl)-2-(4-methylpiperidin-1-yl)-N-phenylethanesulfonamide]: the “HDAC6 selectivity (fold)” value is recorded as 549 fold and the IC50 turned out to be 182 nM.
Turning to `CS(=O)(=O)N(Cc1ccc(-c2nnc(C(F)F)o2)cc1)c1cncnc1` [Compound 11636, N-(4-(5-(difluoromethyl)-1,3,4-oxadiazol-2-yl)benzyl)-N-(pyrimidin-5-yl)methanesulfonamide], the “HDAC6 selectivity (fold)” value turned out to be 862 fold and the IC50 turned out to be 116 nM.
Taken in the same sequence, the figures for `O=C(C1CC1)N1CCN(CCS(=O)(=O)N(Cc2ccc(-c3nnc(C(F)F)o3)cc2)c2ccccc2)CC1` [Compound 11761, 2-(4-(cyclopropanecarbonyl)piperazin-1-yl)-N-(4-(5-(difluoromethyl)-1,3,4-oxadiazol-2-yl)benzyl)-N-phenylethane-1-sulfonamide] were 976 fold and 102 nM.
For `CS(=O)(=O)N(Cc1ccccn1)Cc1ccc(-c2nnc(C(F)(F)F)o2)cn1` [Compound 11128, N-(pyridin-2-ylmethyl)-N-((5-(5-(trifluoromethyl)-1,3,4-oxadiazol-2-yl)pyridin-2-yl)methyl)methanesulfonamide] the same measures were 192 fold and 520 nM.
For the compound `CCS(=O)(=O)N(Cc1ccc(-c2nnc(C(F)F)o2)cn1)c1cccc2cnn(C)c12` [Compound 11541, N-((5-(5-(difluoromethyl)-1,3,4-oxadiazol-2-yl)pyridin-2-yl)methyl)-N-(1-methyl-1H-indazol-7-yl)ethanesulfonamide], the “HDAC6 selectivity (fold)” value was determined as 6250 fold and the IC50 worked out at 16 nM.
As to `O=S(=O)(C1CCN([C@H]2CC[C@@H](F)CC2)CC1)N(Cc1ccc(-c2nnc(C(F)F)o2)cc1)c1cccc(Cl)c1` [Compound 11726, N-(3-chlorophenyl)-N-(4-(5-(difluoromethyl)-1,3,4-oxadiazol-2-yl)benzyl)-1-((1s,4s)-4-fluorocyclohexyl)piperidine-4-sulfonamide], the “HDAC6 selectivity (fold)” value stood at 782 fold and the concentration for half-maximal inhibition (IC50) stood at 128 nM.
For `O=S(=O)(c1cccnc1)N(Cc1ccc(-c2nnc(C(F)(F)F)o2)cc1F)c1cccc(C(F)(F)F)n1` [Compound 11253, N-(2-fluoro-4-(5-(trifluoromethyl)-1,3,4-oxadiazol-2-yl)benzyl)-N-(6-(trifluoromethyl)pyridin-2-yl)pyridine-3-sulfonamide] the same measures were 150 fold and 666 nM.
In the case of `O=S(=O)(c1cccnc1)N(Cc1ccc(-c2nnc(C(F)(F)F)o2)cc1)c1ccccc1` [Compound 11151, N-phenyl-N-(4-(5-(trifluoromethyl)-1,3,4-oxadiazol-2-yl)benzyl)pyridine-3-sulfonamide], the “HDAC6 selectivity (fold)” value is listed as 741 fold and the IC50 worked out at 135 nM.
Taken in the same sequence, the figures for `O=S(=O)(CCN1CC[C@@H](O)C1)N(Cc1ccc(-c2nnc(C(F)F)o2)cc1)c1ccccc1` [Compound 11801, (R)—N-(4-(5-(difluoromethyl)-1,3,4-oxadiazol-2-yl)benzyl)-2-(3-hydroxypyrrolidin-1-yl)-N-phenylethane-1-sulfonamide] were 2941 fold and 34 nM.
For `CS(=O)(=O)N(Cc1ccc(-c2nnc(C(F)F)o2)cc1F)c1ccc2c(c1)CCC2` [Compound 11747, N-(4-(5-(difluoromethyl)-1,3,4-oxadiazol-2-yl)-2-fluorobenzyl)-N-(2,3-dihydro-1H-inden-5-yl)methanesulfonamide] the same measures were 1050 fold and 95.2 nM.
